# Laboratory results as given in patent US10238688B2, “Combination therapies for bladder cancer” (GENEDIA BIOTECH CO. LTD., priority 2015, dated 2019).
# Tests used:
# [1] = system: 5637; test: MTT cell survival / IC50, 5637 cells; type: cell-based, human
# Description: (§1) The clinical grade of the chemotherapeutics (NCI Dictionary of Cancer Terms) was provided by the First Affiliated Hospital of Harbin Medical University: Pirarubicin (Pi, Wanle, Shenzhen), Paclitaxel (Pa, Taiji, Sichuan), Adriamycin (Ad, Pfizer, Jiangsu), Epirubicin Hydrochloride (EH, Haizheng, Zhejiang), Hydroxycamptothecin (Hy, Lishizhen, Hubei), Cisplatin (Ci, Haosen, Jiangsu), Gemcitabine (Ge, Haosen, Jiangsu) and Mitomycin (Mi, Haizheng, Zhejiang). The drug induced cell death was determined by a thiazolyl […] (MTT, 490 nm reading) based cell proliferation assay in the cultured cells following treatment by various concentrations of drugs for 72 hours. The relative chemoresistance to each drug of all cell lines was calculated with the lowest IC50 as a reference. The overall chemoresistance of each cell line was described as “chemoresistance index”, the numerator of the total relative IC50 to all the drugs over the number of drugs to rank the overall resistance state of each cell line to the six chemotherapeutics collectively.
# (§2) The relative IC50 (fold) of each drug of all nine cell lines was normalized to the lowest IC50 in the most sensitive cell line (FIG. 2G), to describe the single drug resistance of cell lines. The overall chemoresistance of each cell line, a “chemoresistance index” (the numerator of the total relative IC50 over the number of drugs) (FIG. 2G) were calculated to rank the overall resistance state of each cell line to this six chemotherapeutics.
# (§3) Twenty six-drug combinations at the indicated doses were initially generated through a random number generator (using MATLAB MathWorks©, Natick, Mass., U.S.) (The upper half of Table 1). The cell survival (% over the not drug control) of treated cells was determined and then used for a calculation of the average cumulative cell survival (%, ACS: the sum of cell survival (%) per combination divided by the number of cell lines tested). ACS<30% was used to separate the effective from the not-effective combinations.
# [2] = system: J-82; test: MTT cell survival / IC50, J-82 cells; type: cell-based, human; details: J82; Table S3; ng/ml: Pi 40, Pa 160, EH 250, Ci 1500, Mi 200; 1=Ci/Mi, 2=EH/Ci/Mi, 3=Pa/Ci/Mi, 4=Pi/Ci/Mi
# Description: as §1, §2, §3
# [3] = system: SV-HUC-1; type: cell-based
# Description: as §1, §2
# [4] = system: ER Stress pathway; test: Cignal Finder dual-luciferase pathway reporter, ER Stress; type: cell-based, human; details: for Relative activity, ER Stress reporter: luc/Renluc relative to negative control reporter, single drug at 4 folds vs EH/Ci/Mi combination
# Description: (§4) The pathway analysis was performed with Qiagen's Cignal Finder Pathway Reporter Array systems according to the manufacturer's instructions. The pathway-focused dual-luciferase reporter construct was a mixture of an inducible transcription factor responsive firefly luciferase reporter and constitutively expressing renilla construct. Transcriptional response element (TRE) sequence response elements to each specific transcriptional factor triggered by the different signaling pathways are positioned before the TATA box of firefly luciferase reporter gene. The extent of activity of the reporter reflects the level of activity of the particular signaling pathway. CMV controlled renilla expression vector is co-transfected into the cell as an internal control. Non-inducible reporter construct that lacks the transcriptional factor binding sequence and could not be induced by any transcription factors is used as a negative control. Cells transfected with CMV directed firefly luciferase reporter gene serve as a positive control. Briefly, cells seeded in 6-well plates were transfected with Cignal finder pathway arrays according to the manufacturer's instructions (Qiagen). Then cells were seeded onto 96-well plates. Ci (6000 ng/mL), Mi (800 ng/mL), or EH (1000 ng/mL) and Ci/Mi/EH combination (Ci, 1500 ng/mL, Mi, 800 ng/mL and EH, 1000 ng/m L) were then added to the cells 24 h post-transfection. After 6 h of incubation with the different drugs at 37° C., cells were lysed and a dual luciferase assay (for firefly and renilla luciferase) was performed using a PromegaGloMax 20/20 illuminometer. The firefly luciferase activities were normalized over the renilla luciferase activities after background activity determined by luciferase activities of negative controls was subtracted. A triple test of cell survival under these drug doses was also performed by MTT assay following 18 h incubation at 37° C. […]
# [5] = system: Wnt pathway; test: Cignal Finder dual-luciferase pathway reporter, Wnt; type: cell-based, human; parameters: key to Relative activity, Wnt reporter: firefly/renilla ratio, background (negative control) subtracted; details: for Relative activity, Wnt reporter: luc/Renluc relative to negative control reporter, single drug at 4 folds vs EH/Ci/Mi combination;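 for digitalized pathway activity, Wnt: code −1 means repressed below 0.5-fold of 5637 cells or no-drug control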
# Description: as §4
# [6] = system: Cell Cycle/pRb-E2F pathway; test: Cignal Finder dual-luciferase pathway reporter, Cell Cycle/pRb-E2F; type: cell-based, human; parameters: key to Relative activity, Cell Cycle/pRb-E2F reporter: firefly/renilla ratio, background (negative control) subtracted; details: for Relative activity, Cell Cycle/pRb-E2F reporter: luc/Renluc relative to negative control reporter, single drug at 4 folds vs EH/Ci/Mi combination
# Description: as §4
# [7] = system: nine cancer-associated signaling pathways; test: Pearson correlation of collective drug-triggered pathway activities (single drug versus EH/Ci/Mi regimen)
# Description: To calculate the correlation coefficients between the two cell lines, the R language statistics function “cor{stats}” was used to generate the correlation matrix between multiple cell lines.
# This example then determined the correlation coefficient between the overall activity of these nine pathways and the chemoresistance state of these five cell lines. […] The overall state of activity of these pathways in each cell line are summarized (FIG. 4E) and the correlation coefficient of each pair of cell lines is calculated (FIG. 4F).
compound,measurement,setting,value
"N.N.[Cl][Pt][Cl] [Ci, (SP-4-2)-diamminedichloroplatinum(II)]",Cell survival (%),"[1]; 5637, Table S3, ng/ml: Pi 40, Pa 160, EH 250, Ci 1500, Mi 200, 1=Ci/Mi, 2=EH/Ci/Mi, 3=Pa/Ci/Mi, 4=Pi/Ci/Mi",20.32%
same,Single drug 4X Cell Survival (%),"[1]; 5637, ng/ml: EH 1000, Ci 6000, Mi 800, Pi 160, Pa 640, Ge 20, EH/Ci/Mi regimen",1.49%
same,Cell survival 72 hours,"[1]; 5637 cells, Table 4 (A)",2.23%
same,ACS (%),"[1]; 5637 cells, Table 4 (B)",2.23%
same,Cell survival (%),[2],15.42%
same,Single drug 4X Cell Survival (%),"[3]; SV-HUC-1, ng/ml: EH 1000, Ci 6000, Mi 800, Pi 160, Pa 640, Ge 20, EH/Ci/Mi regimen",26.21%
same,Cell survival 72 hours,"[3]; SV-HUC-1 cells, Table 4 (A)",26.21%
same,ACS (%),"[3]; SV-HUC-1 cells, Table 4 (B)",26.21%
same,"relative drug trigged pathway activity over the no-drug level, ER Stress",[4]; 5637 cells,1.82 fold
same,"Relative activity, ER Stress reporter",[4]; 5637 cells,47.45
same,"digitalized pathway activity, ER Stress",[4]; Biu87 cells,0 (null (0) if neither of the above holds)
same,"relative drug trigged pathway activity over the no-drug level, ER Stress",[4]; Biu87 cells,0.83 fold
same,"Relative activity, ER Stress reporter",[4]; Biu87 cells,18.10
same,"digitalized pathway activity, ER Stress",[4]; H-bc cells,0 (null (0) if neither of the above holds)
same,"relative drug trigged pathway activity over the no-drug level, ER Stress",[4]; H-bc cells,0.82 fold
same,"Relative activity, ER Stress reporter",[4]; H-bc cells,101.61
same,"digitalized pathway activity, ER Stress",[4]; SV-HUC-1 cells,0 (null (0) if neither of the above holds)
same,"relative drug trigged pathway activity over the no-drug level, ER Stress",[4]; SV-HUC-1 cells,1.12 fold
same,"Relative activity, ER Stress reporter",[4]; SV-HUC-1 cells,115.00
same,"digitalized pathway activity, ER Stress",[4]; UM-UC-3 cells,0 (null (0) if neither of the above holds)
same,"Relative activity, ER Stress reporter",[4]; UM-UC-3 cells,67.50
same,"relative drug trigged pathway activity over the no-drug level, ER Stress",[4]; Um-Uc-3 cells,0.83 fold
same,"digitalized pathway activity, Wnt",[5]; 5637 cells,0 (null (0) if neither of the above holds)
same,"relative drug trigged pathway activity over the no-drug level, Wnt",[5]; 5637 cells,1.14 fold
same,"Relative activity, Wnt reporter",[5]; 5637 cells,1.00
same,"relative drug trigged pathway activity over the no-drug level, Wnt",[5]; Biu87 cells,0.41 fold
same,"Relative activity, Wnt reporter",[5]; Biu87 cells,0.69
same,"digitalized pathway activity, Wnt",[5]; H-bc cells,0 (null (0) if neither of the above holds)
same,"relative drug trigged pathway activity over the no-drug level, Wnt",[5]; H-bc cells,0.78 fold
same,"Relative activity, Wnt reporter",[5]; H-bc cells,3.14
same,"digitalized pathway activity, Wnt",[5]; SV-HUC-1 cells,0 (null (0) if neither of the above holds)
same,"relative drug trigged pathway activity over the no-drug level, Wnt",[5]; SV-HUC-1 cells,1.25 fold
same,"Relative activity, Wnt reporter",[5]; SV-HUC-1 cells,1.55
same,"Relative activity, Wnt reporter",[5]; UM-UC-3 cells,1.73
same,"relative drug trigged pathway activity over the no-drug level, Wnt",[5]; Um-Uc-3 cells,0.48 fold
same,"relative drug trigged pathway activity over the no-drug level, Cell Cycle/pRb-E2F",[6]; 5637 cells,1.95 fold
same,"Relative activity, Cell Cycle/pRb-E2F reporter",[6]; 5637 cells,1.77
same,"digitalized pathway activity, Cell Cycle/pRb-E2F",[6]; Biu87 cells,0 (null (0) if neither of the above holds)
same,"relative drug trigged pathway activity over the no-drug level, Cell Cycle/pRb-E2F",[6]; Biu87 cells,0.55 fold
same,"Relative activity, Cell Cycle/pRb-E2F reporter",[6]; Biu87 cells,0.31
same,"digitalized pathway activity, Cell Cycle/pRb-E2F",[6]; H-bc cells,0 (null (0) if neither of the above holds)
same,"relative drug trigged pathway activity over the no-drug level, Cell Cycle/pRb-E2F",[6]; H-bc cells,0.51 fold
same,"Relative activity, Cell Cycle/pRb-E2F reporter",[6]; H-bc cells,5.86
same,"relative drug trigged pathway activity over the no-drug level, Cell Cycle/pRb-E2F",[6]; SV-HUC-1 cells,1.71 fold
same,"Relative activity, Cell Cycle/pRb-E2F reporter",[6]; SV-HUC-1 cells,8.40
same,"Relative activity, Cell Cycle/pRb-E2F reporter",[6]; UM-UC-3 cells,2.29
same,"relative drug trigged pathway activity over the no-drug level, Cell Cycle/pRb-E2F",[6]; Um-Uc-3 cells,0.39 fold
same,Correlation coefficients versus EH/Ci/Mi,[7]; 5637 cells,0.9177
same,Correlation coefficients versus EH/Ci/Mi,[7]; Biu87 cells,0.3273
same,Correlation coefficients versus EH/Ci/Mi,[7]; H-bc cells,0.6934
same,Correlation coefficients versus EH/Ci/Mi,[7]; SV-HUC-1 cells,1
same,Correlation coefficients versus EH/Ci/Mi,[7]; UmUc3 cells,−0.7559
